This note sets out measurements from US6518306B1, “1,4-substitued 4,4-diaryl cyclohexanes” (SmithKline Beecham Corporation, priority 1999, dated 2003).

The test system of the assay is TNF. Kind of assay: Endotoxic shock models, in vivo TNF activity. The note with it: endotoxic shock model; serum TNF after endotoxin injection. The text has this: Two models of endotoxic shock have been utilized to determine in vivo TNF activity for the compounds of Formula (I) and (II). The protocol used in these models is described in Badger et al., EPO published Application 0 411 754 A2, Feb. 6, 1991, and in Hanna. WO 90/15534, Dec. 27, 1990.

For `COc1ccc(C=O)cc1OC1CCCC1` [Example 1, 3-Cyclopentyloxy-4-methoxybenzaldehyde], the “in vivo response in reducing serum levels of TNF induced by the injection of endotoxin” value is “positive in vivo response”.
